Assay results: PMC9226319, “Peripherally restricted transthyretin-based delivery system for probes and therapeutics avoiding opioid-related side effects” (Nature Communications, 2022)
Where “and” joins values, the source holds several entries; their conditions need not be identical. Equal entries are not always repeated. Where two headings read alike, the source gives them in different places. One block for each molecule: values may come before it.

Tests used:
[1] = target: TTR in human serum (Homo sapiens, UniProt P02766); experiment: TTR serum fluorescent probe exclusion (FPE) selectivity assay; format: binding; conditions: ligand 10 µM; for %FPE probe fluorescence: human serum, replicates
[2] = target: holo-RBP-TTR interaction (Homo sapiens, UniProt P02766); experiment: Effect on holo-RBP-TTR interaction in human serum (cross-linking, Western blot); conditions: human serum, quantified from gel image, replicates (Supp Fig.14b)
[3] = target: purified human TTR (Homo sapiens, UniProt P02766); experiment: Fluorescence polarization (FP) binding assay, ligands to TTR in buffer
[4] = tested on: male Sprague-Dawley rats; conditions: cited from earlier work
[5] = target: human mu-opioid receptors (Homo sapiens, UniProt P35372); conditions: cited from earlier work
human mu-opioid receptors, sequence (P35372 whole entry): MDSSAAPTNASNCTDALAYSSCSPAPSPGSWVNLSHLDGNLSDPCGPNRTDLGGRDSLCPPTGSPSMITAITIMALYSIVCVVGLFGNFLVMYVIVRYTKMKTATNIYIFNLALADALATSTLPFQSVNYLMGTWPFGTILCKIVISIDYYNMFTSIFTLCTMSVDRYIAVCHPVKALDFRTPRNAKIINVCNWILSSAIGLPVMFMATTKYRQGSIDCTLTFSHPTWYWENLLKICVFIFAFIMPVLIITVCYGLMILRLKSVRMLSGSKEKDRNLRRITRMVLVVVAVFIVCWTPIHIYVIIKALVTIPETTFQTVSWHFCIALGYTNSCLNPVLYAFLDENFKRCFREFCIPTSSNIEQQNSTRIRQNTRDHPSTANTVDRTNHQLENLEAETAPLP

- % TTR occupancy in human serum ([1]; FPE probe 3.6 µM, 3 h reading relative to probe alone, text mean ± s.d., table replicates): 80.97% and 81.01% and 82.98% and 80.85%
- %FPE probe fluorescence ([1]; time 0.000 h): 0.000%
- %FPE probe fluorescence ([1]; time 0.083 h): 1.647% and 2.385% and -0.604% and 3.064%
- %FPE probe fluorescence ([1]; time 0.250 h): 1.886% and 5.252% and 4.502% and 2.159%
- %FPE probe fluorescence ([1]; time 0.500 h): 6.344% and 5.631% and 7.192% and 4.320%
- %holo RBP binding to TTR [2]: 8% and 6.2% and 5.8%
- Kd ([3]; FP assay, Kd from IC50 by Cheng-Prusoff, read-out: binding affinity to TTR in buffer (Kd)): 68.5 nM
- % Fluorescence polarization (mean) ([3]; log [nM] inhibitor 0.990): 100.000%
- % Fluorescence polarization (mean) ([3]; log [nM] inhibitor 1.291): 100.180%
- % Fluorescence polarization (mean) ([3]; log [nM] inhibitor 1.592): 101.890%
- % Fluorescence polarization (mean) ([3]; log [nM] inhibitor 1.893): 93.660%
- % Fluorescence polarization (mean) ([3]; log [nM] inhibitor 2.194): 79.820%
- % Fluorescence polarization (mean) ([3]; log [nM] inhibitor 2.495): 50.610%
- % Fluorescence polarization (mean) ([3]; log [nM] inhibitor 2.796): 29.820%
- % Fluorescence polarization (mean) ([3]; log [nM] inhibitor 3.097): 10.200%
- % Fluorescence polarization (mean) ([3]; log [nM] inhibitor 3.398): 5.680%
- % Fluorescence polarization (mean) ([3]; log [nM] inhibitor 3.699): 2.100%
- % Fluorescence polarization (mean) ([3]; log [nM] inhibitor 4.000): 0.000%
- % Fluorescence polarization (mean) ([3]; log [nM] inhibitor […]): 0.000%
Structure (SMILES): Cc1n[nH]c(C)c1CCCOc1cc(OCCCCCCN)cc(C(=O)O)c1 [Compound 1]
- %FPE probe fluorescence ([1]; time 1.000 h): 3.308% and 7.416% and 10.395% and 10.953%
- %FPE probe fluorescence ([1]; time 1.250 h): 4.585% and 8.580% and 11.565% and 11.702%
- %FPE probe fluorescence ([1]; time 1.500 h): 7.132% and 12.681% and 12.080% and 11.106%
- %FPE probe fluorescence ([1]; time 1.750 h): 8.769% and 12.456% and 13.547% and 12.819%
- %FPE probe fluorescence ([1]; time 2.000 h): 10.680% and 14.441% and 12.622% and 13.836%
- %FPE probe fluorescence ([1]; time 2.250 h): 13.720% and 16.433% and 14.485% and 14.975%
- %FPE probe fluorescence ([1]; time 2.500 h): 13.664% and 19.254% and 16.706% and 17.421%
- %FPE probe fluorescence ([1]; time 2.750 h): 17.610% and 18.428% and 15.401% and 17.419%
- %FPE probe fluorescence ([1]; time 3.000 h): 19.032% and 18.994% and 17.022% and 19.151%
- %FPE probe fluorescence ([1]; time 3.500 h): 21.344% and 21.727% and 19.004% and 22.809%
- %FPE probe fluorescence ([1]; time 3.750 h): 22.381% and 21.465% and 19.735% and 21.684%
- %FPE probe fluorescence ([1]; time 4.000 h): 24.245% and 24.044% and 22.333% and 25.118%
- %FPE probe fluorescence ([1]; time 4.250 h): 24.067% and 25.243% and 24.565% and 26.782%
- %FPE probe fluorescence ([1]; time 4.500 h): 26.784% and 27.018% and 26.091% and 25.883%
- %FPE probe fluorescence ([1]; time 4.750 h): 28.232% and 25.575% and 25.168% and 25.868%
- %FPE probe fluorescence ([1]; time 5.000 h): 29.310% and 28.226% and 25.991% and 29.486%
- %FPE probe fluorescence ([1]; time 5.250 h): 29.376% and 30.191% and 26.180% and 29.320%
- %FPE probe fluorescence ([1]; time 5.500 h): 30.897% and 29.807% and 29.795% and 31.357%
- %FPE probe fluorescence ([1]; time 5.750 h): 32.177% and 31.200% and 28.228% and 32.379%
- %FPE probe fluorescence ([1]; time 6.000 h): 33.601% and 32.676% and 30.907% and 33.191%

Structure (SMILES): CN(C)C(=O)C(CCN1CCC(O)(c2ccc(Cl)cc2)CC1)(c1ccccc1)c1ccccc1 [Loperamide]
- GI transit ([4]; 30 mg/kg): 30%
- GI transit ([4]; subcutaneous 1 mg/kg): 50%
- ED50 for inducing constipation ([4]; subcutaneous): 1 mg/kg

Structure (SMILES): C[N+]1(CC2CC2)CC[C@]23c4c5ccc(O)c4O[C@H]2C(=O)CC[C@@]3(O)[C@H]1C5 (some centres unmarked) [MNTX]
- affinity for the mu-opioid receptors as % of naltrexone [5]: 1%
- Ki ([5]; read-out: binding affinity to mu-opioid receptor (Ki)): 22.1 nM
